From US20200261388A1, “USE AND METHOD OF L-ASPARTIC ACID beta-HYDROXAMATE IN PREPARING DRUGS FOR INHIBITING CHOROIDAL NEOVASCULARIZATION” (WENZHOU MEDICAL UNIVERSITY, priority 2019, published 2020)

How the values were obtained:
[1] = tested on: retinal functions (B-wave of rod and cone cells); assay: Electroretinographic analysis of retinal function after intravenous L-ABH; format: in vivo, C57BL/6J male mice; conditions: 6 mg/kg i.v., one day after injection, vs saline injection group
Method: The effect of intravenous injection of L-ABH on retinal functions is shown in FIGS. 2A-2D, in which C57BL/6J male mice were intravenously injected 6 mg/kg of L-ABH at an age of two months, one day after the injection, an electrographic analysis was performed on the retina. The amplitudes of B-wave in dark and bright views are shown in FIG. 2A, FIG. 2C, and FIG. 2B respectively, and the average values of which are analyzed by histograms in FIG. 2D.

primary RPEs = assay: L-serine and D-serine in supernatants of primary RPE by HPLC; format: cell-based; conditions: L-ABH 0.0625-0.25 mM pre-treatment 1.5 h, then TNFα 500 unit/ml 12 h; supernatant
Method: Primary RPE was cultured in DMEM/F12 plus 20% FBS to a density of 70%, at which it was exchanged for DMEM/F12 plus 1% FBS, L-ABH (0.0625-0.25 mM), or after the control pre-treatment for 1.5 hours, it was exchanged for TNFα (500 unit/ml) to treat for 12 h, the supernatants were collected, and L-serine and D-serine in the supernatants were detected by high performance liquid chromatography. There were six samples in each group. The contents of L-serine and D-serine are shown with box charts in FIG. 4A, with **p<0.01, *p<0.05 showing that there was significant difference of D-serine between the treatment group and the control group. The ratio of L/D-serine was shown in FIG. 4B, with **p<0.01, *p<0.05 showing that there was significant difference between the control groups. In FIG. 4C-FIG. 4E, primary RPEs were co-cultured with macrophages J774A.1, primary RPEs were pretreated with L-ABH (0.125 mM) for 1.5 h, then treated with TNFα (500 unit/ml) for 12 h, with J774A.1 being cultured in the upper layer at the same time for 12 h, after which the supernatants cultured with RPEs were collected, and an enzyme-linked immunosorbent assay was used to detect the productions of MCP-1 (C), VEGF (D), and NO (E). (There were 7 samples for each group). In FIG. 4C, ***p<0.001, compared with the control group, **p<0.01, compared with TNFα treatment group. […]

visual functions = tested on: visual functions; set-up: species or system C57BL/6j male mice; conditions: mouse, in vivo
Method: The effect of intravenous injection of L-ABH on visual functions are shown in FIGS. 3A-3C, in which C57BL/6j male mice were intravenously injected 6 mg/kg of L-ABH at an age of two months, one day after the injection, visual behaviors were analyzed.

[2] = tested on: primary RPEs induced with TNFα; assay: Production of VEGF and MCP-1 by TNFα-induced primary RPE (ELISA, co-culture with J774A.1); format: cell-based; conditions: L-ABH 0.125 mM pre-treatment 1.5 h, then TNFα 500 unit/ml 12 h
Method: (§1) Using animal models of exAMD, in C57/B6 mice, fundus was irradiated with Krypton red laser (interval at 0.05 s, duration of 0.07 s, and power at 240 mW) to make CNV mice models. A serine racemase competitive inhibitor, L-aspartic acid β-hydroxamate (L-ABH), was injected intravenously at a dosage of 6 mg/kg at the day before laser, and at a dosage of 3 mg/kg at the third day after laser. At the seventh day after laser injury, stretched preparation was performed with choroid/retinal pigment epithelial cells (RPEs), which were stained with metaagglutinin GS-IB4 coupled with Alexa Fluor 594, and the volume of CNV was analyzed. And primary RPEs were utilized in vitro to study the inhibition of L-ABH on the production of VEGF and MCP-1 by RPEs which was induced with TNFα. Macrophages were co-cultured with RPEs to study L-ABH about pre-treating RPEs and inhibiting the migration of macrophages.
Primary RPE was cultured in DMEM/F12 plus 20% FBS to a density of 70%, at which it was exchanged for DMEM/F12 plus 1% FBS, L-ABH (0.0625-0.25 mM), or after the control pre-treatment for 1.5 hours, it was exchanged for TNFα (500 unit/ml) to treat for 12 h, the supernatants were collected, and L-serine and D-serine in the supernatants were detected by high performance liquid chromatography. There were six samples in each group. […]

macrophages J774A.1 = assay: Migration of macrophages J774A.1 co-cultured with TNFα-treated RPE; format: cell-based; conditions: L-ABH 0.125 mM pre-treatment of RPE 1.5 h, then TNFα 12 h; co-culture 12 h
Method: as §1
The results of L-ABH inhibiting the migration of macrophages under the induction of RPE treated with TNFα are shown in FIGS. 5A-5D, in which RPE was co-cultured with macrophages J774A.1 for 12 h. […] For each culture dish, nine visual fields were randomly selected under the light microscope to be counted, with the statistical analysis seen in FIG. 5D. **p<0.01, compared with the control group, # p<0.05, compared with TNFα treatment group.

[3] = tested on: laser-induced choroidal neovascularization; assay: Laser-induced choroidal neovascularization (CNV) mouse model, intravenous L-ABH; format: in vivo, C57/B6 mice; conditions: i.v. 6 mg/kg the day before laser and 3 mg/kg third day after laser; analysed day 7 after laser; p=0.001
Method: as §1
The results of inhibiting the laser-induced choroidal neovascularization by intravenously injecting L-ABH are shown in FIGS. 1A-1E, wherein FIG. 1A is CNV produced by laser in 2-month-old wild-type mice. Injection of saline was used as the control group (Con, B); at the day before laser, L-ABH was injected intravenously (2 mg/kg), and 1 mg/kg (C) was injected 3 days after laser; or at the day before laser, L-ABH was injected intravenously (6 mg/kg), and 3 mg/kg (D) was injected 3 days after laser. […]

## N[C@@H](CC(=O)NO)C(=O)O [L-ABH, L-aspartic acid β-hydroxamate]
[1]
  amplitude of B-wave from cone cells in a bright view: no differences
  amplitude of B-wave from rod cells in a dark view: no differences
Primary RPEs
  production of D-serine in primary RPEs: decreased the production of D-serine
  ratio of L-serine/D-serine: increased the ratio of L-serine/D-serine
Visual functions
  retention time of mice in the black box: no difference
[2]
  production of MCP-1 by RPE induced with TNFα: significantly decreasing the production
  production of VEGF by RPE induced with TNFα: significantly decreasing the production
Macrophages J774A.1
  macrophage migration mediated with RPE induced with TNFα: significantly inhibited macrophage migration
[3]
  volume of CNV relative to saline control group: 55%
